The text below walks through data of patent publication US20260297092A1, “PYRAZOLOPYRIMIDINE DERIVATIVES AS INHIBITORS OF NLRP3” (Takeda Pharmaceutical Company Limited, priority 2023, published 2026).

The test system of assay [1] is NLRP3 inflammasome (IL-1β production in THP-1 cells). Description: IL-1β TR-FRET Assay (percentage of inhibition at 300 nM, 6 μM or 10 μM). Type of assay: cell-based, human. The note with it: LPS priming, ATP activation; for inhibition at 6 µM: Homo sapiens, THP-1, 6 μM, read-out: IL-1β inhibitory rate at 6 μM (%). The method in brief:
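THP-1 cells were differentiated with 25 ng/mL IFN-γ for 24 h, primed with 50 ng/mL LPS in serum-free medium for 24 h, then given compound for 30 min before 20 mM ATP for 2 h. Supernatant IL-1β was measured by HTRF after 16-24 h at room temperature. Inhibition was normalized between DMSO (high) and 3 μM MCC-950 (low).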
On the technique in general: In TR-FRET formats the signal depends on donor and acceptor labels being close together.

Assay [2] deals with TNF-α (NF-κB pathway, THP-1 cells). Description: TNF-α Assay (IC50). Type of assay: cell-based, human. To be noted: 600 ng/mL LPS, 3 hours. The gist of the method: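 THP-1 cells differentiated to macrophages with 25 ng/mL IFN for 24 h, plated 40,000/well in serum-free medium, preincubated with compounds 30 min at 37 °C, then stimulated with 600 ng/mL LPS for 3 h. Supernatant TNF-α measured by ELISA; IC50 from four-parameter logistic fit, 100% inhibition defined by TPCA-1.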

The structures appear in SMILES notation.

As to `CCOc1nc2nn(-c3c(C)cc(C4(F)CC4)cc3C)cc2c(=O)[nH]1` [Example 245, 6-ethoxy-2-[4-(1-fluorocyclopropyl)-2,6-dimethylphenyl]-2,5-dihydro-4H-pyrazolo[3,4-d]pyrimidin-4-one], the inhibition at 6 µM in assay [1] turned out to be 101%. In addition, in assay [2] (Homo sapiens), the IC50 is > 30 µM.

With `COCCOc1nc2nn(-c3c(C)cc(C4(F)CC4)cc3C)cc2c(=O)[nH]1` [Example 246, 2-[4-(1-fluorocyclopropyl)-2,6-dimethylphenyl]-6-(2-methoxyethoxy)-2,5-dihydro-4H-pyrazolo[3,4-d]pyrimidin-4-one], the inhibition at 6 µM in assay [1] was found to be 101%. In addition, the IC50 in assay [2] (Homo sapiens) was > 30 µM.

On to `Cc1cc(C2CC2)cc(C)c1-n1cc2c(=O)[nH]c([C@@]3(F)CCOC3)nc2n1` [Example 247, 2-(4-cyclopropyl-2,6-dimethylphenyl)-6-(3-fluorooxolan-3-yl)-2,5-dihydro-4H-pyrazolo[3,4-d]pyrimidin-4-one], for which the inhibition at 6 µM in assay [1] came out at 100%. Also, in assay [2] (Homo sapiens), the IC50 is > 30 µM.

With `Cc1cc(C2CC2)cc(C)c1-n1cc2c(=O)[nH]c([C@H]3C[C@@H](F)C3)nc2n1` [Example 249, 2-(4-cyclopropyl-2,6-dimethylphenyl)-6-[(1s,3s)-3-fluorocyclobutyl]-2,5-dihydro-4H-pyrazolo[3,4-d]pyrimidin-4-one], the inhibition at 6 µM in assay [1] is 98%. Also, the IC50 in assay [2] (Homo sapiens) was > 30 µM.

With `COc1nc2nn(-c3c(C)cc(C4CC4)cc3OC(F)F)cc2c(=O)[nH]1` [Example 252, 2-[4-cyclopropyl-2-(difluoromethoxy)-6-methylphenyl]-6-methoxy-2,5-dihydro-4H-pyrazolo [3,4-d]pyrimidin-4-one], in assay [1], the inhibition at 6 µM came out at 103%. Besides, in assay [2] (Homo sapiens), the IC50 is > 30 µM.

On to `CCn1ncc(-c2nc3nn(-c4c(C)cc(C5CC5)cc4C)cc3c(=O)[nH]2)n1` [Example 257, 2-(4-cyclopropyl-2,6-dimethylphenyl)-6-(2-ethyl-2H-1,2,3-triazol-4-yl)-2,5-dihydro-4H-pyrazolo[3,4-d]pyrimidin-4-one], for which, in assay [1], the inhibition at 6 µM was determined as 99%. Besides, in assay [2] (Homo sapiens), the IC50 is > 30 µM.

Consider `Cc1cc(C2CC2)cc(C)c1-n1cc2c(=O)[nH]c(-c3cnn(C)n3)nc2n1` [Example 258, 2-(4-cyclopropyl-2,6-dimethylphenyl)-6-(2-methyl-2H-1,2,3-triazol-4-yl)-2,5-dihydro-4H-pyrazolo[3,4-d]pyrimidin-4-one], for which, in assay [1], the inhibition at 6 µM stood at 100%. In addition, the IC50 in assay [2] (Homo sapiens) was > 30 µM.

Consider `Cc1cc(C2CC2)cc(C)c1-n1cc2c(=O)[nH]c([C@@]3(F)CCCOC3)nc2n1` [Example 260, 2-(4-cyclopropyl-2,6-dimethylphenyl)-6-(3-fluorooxan-3-yl)-2,5-dihydro-4H-pyrazolo[3,4-d]pyrimidin-4-one], for which the inhibition at 6 µM in assay [1] is 96%. In addition, the IC50 in assay [2] (Homo sapiens) was > 30 µM.

For `Cc1cc(C2CC2)cc(C)c1-n1cc2c(=O)[nH]c(C3CC(F)(F)C3)nc2n1` [Example 262, 2-(4-cyclopropyl-2,6-dimethylphenyl)-6-(3,3-difluorocyclobutyl)-2,5-dihydro-4H-pyrazolo[3,4-d]pyrimidin-4-one], in assay [1], the inhibition at 6 µM amounted to 100%. Further, in assay [2] (Homo sapiens), the IC50 was > 30 µM.

Take `Cc1cc(C2(F)CC2)cc(C)c1-n1cc2c(=O)[nH]c(COC(F)F)nc2n1` [Example 263, 6-[(difluoromethoxy)methyl]-2-[4-(1-fluorocyclopropyl)-2,6-dimethylphenyl]-2,5-dihydro-4H-pyrazolo[3,4-d]pyrimidin-4-one]: in assay [1], the inhibition at 6 µM came to 104%. Besides, the IC50 in assay [2] (Homo sapiens) was > 30 µM.

Regarding `COC1(c2nc3nn(-c4c(C)cc(C5CC5)cc4C)cc3c(=O)[nH]2)CC1` [Example 266, 2-(4-cyclopropyl-2,6-dimethylphenyl)-6-(1-methoxycyclopropyl)-2,5-dihydro-4H-pyrazolo[3,4-d]pyrimidin-4-one], the inhibition at 6 µM in assay [1] worked out at 98%. Moreover, the IC50 in assay [2] (Homo sapiens) is > 30 µM.

For `CCOc1nc2nn(-c3c(C(F)(F)F)cc(C4CC4)nc3C)cc2c(=O)[nH]1` [Example 269, 2-[6-cyclopropyl-2-methyl-4-(trifluoromethyl)pyridin-3-yl]-6-ethoxy-2,5-dihydro-4H-pyrazolo[3,4-d]pyrimidin-4-one], the inhibition at 6 µM in assay [1] was found to be 100%. In addition, in assay [2] (Homo sapiens), the IC50 was > 30 µM.

On to `Cc1nc(-c2nc3nn(-c4c(C)cc(C5CC5)cc4C)cc3c(=O)[nH]2)co1` [Example 272, 2-(4-cyclopropyl-2,6-dimethylphenyl)-6-(2-methyl-1,3-oxazol-4-yl)-2,5-dihydro-4H-pyrazolo[3,4-d]pyrimidin-4-one], for which, in assay [1], the inhibition at 6 µM worked out at 95%. Also, the IC50 in assay [2] (Homo sapiens) was > 30 µM.

For `Cc1ncc(-c2nc3nn(-c4c(C)cc(C5CC5)cc4C)cc3c(=O)[nH]2)o1` [Example 273, 2-(4-cyclopropyl-2,6-dimethylphenyl)-6-(2-methyl-1,3-oxazol-5-yl)-2,5-dihydro-4H-pyrazolo[3,4-d]pyrimidin-4-one], the inhibition at 6 µM in assay [1] amounted to 99%. In assay [2] (Homo sapiens), the IC50 is > 30 µM.

For the molecule `Cc1cc(-c2nc3nn(-c4c(C)cc(C5CC5)cc4C)cc3c(=O)[nH]2)no1` [Example 274, 2-(4-cyclopropyl-2,6-dimethylphenyl)-6-(5-methyl-1,2-oxazol-3-yl)-2,5-dihydro-4H-pyrazolo[3,4-d]pyrimidin-4-one], the inhibition at 6 µM in assay [1] came to 102%. For the same molecule, the IC50 in assay [2] (Homo sapiens) was > 30 µM.

`Cc1cc(-c2nc3nn(-c4c(C)cc(C5CC5)cc4C)cc3c(=O)[nH]2)on1` [Example 275, 2-(4-cyclopropyl-2,6-dimethylphenyl)-6-(3-methyl-1,2-oxazol-5-yl)-2,5-dihydro-4H-pyrazolo[3,4-d]pyrimidin-4-one]: in assay [1], the inhibition at 6 µM is 101%. In assay [2] (Homo sapiens), this molecule yielded an IC50 of 2.26 µM.

As to `COC1(c2nc3nn(-c4c(C)cc(C5CC5)cc4C)cc3c(=O)[nH]2)CCC1` [Example 277, 2-(4-cyclopropyl-2,6-dimethylphenyl)-6-(1-methoxycyclobutyl)-2,5-dihydro-4H-pyrazolo[3,4-d]pyrimidin-4-one], the inhibition at 6 µM in assay [1] was found to be 96%. Moreover, the IC50 in assay [2] (Homo sapiens) is > 30 µM.

For the molecule `COCCn1ccc(-c2nc3nn(-c4c(C)cc(C5CC5)cc4C)cc3c(=O)[nH]2)n1` [Example 278, 2-(4-cyclopropyl-2,6-dimethylphenyl)-6-[1-(2-methoxyethyl)-1H-pyrazol-3-yl]-2,5-dihydro-4H-pyrazolo[3,4-d]pyrimidin-4-one], the inhibition at 6 µM in assay [1] was 95%. For the same molecule, in assay [2] (Homo sapiens), the IC50 was > 30 µM.

`Cc1cc(C2CC2)cc(C(F)F)c1-n1cc2c(=O)[nH]c(COC(F)F)nc2n1` [Example 283, 2-[4-cyclopropyl-2-(difluoromethyl)-6-methylphenyl]-6-[(difluoromethoxy)methyl]-2,5-dihydro-4H-pyrazolo[3,4-d]pyrimidin-4-one]: in assay [1], the inhibition at 6 µM came to 99%. Also, in assay [2] (Homo sapiens), the IC50 was > 30 µM.

For `COc1nc2nn(-c3c(C)cc(OC(F)F)cc3C(F)F)cc2c(=O)[nH]1` [Example 284, 2-[4-(difluoromethoxy)-2-(difluoromethyl)-6-methylphenyl]-6-methoxy-2,5-dihydro-4H-pyrazolo[3,4-d]pyrimidin-4-one], the inhibition at 6 µM in assay [1] was 103%. The IC50 in assay [2] (Homo sapiens) is > 30 µM.

Take `Cc1cc(C2CC2)cc(C)c1-n1cc2c(=O)[nH]c(OCC(F)F)nc2n1` [Example 285, 2-(4-cyclopropyl-2,6-dimethylphenyl)-6-(2,2-difluoroethoxy)-2,5-dihydro-4H-pyrazolo[3,4-d]pyrimidin-4-one]: the inhibition at 6 µM in assay [1] came to 100%. In addition, in assay [2] (Homo sapiens), the IC50 is > 30 µM.

Regarding `Cc1cc(C2CC2)cc(C)c1-n1cc2c(=O)[nH]c(O[C@H]3CCOC3)nc2n1` [Example 286, 2-(4-cyclopropyl-2,6-dimethylphenyl)-6-{[(3S)-oxolan-3-yl]oxy}-2,5-dihydro-4H-pyrazolo [3,4-d]pyrimidin-4-one], the inhibition at 6 µM in assay [1] worked out at 98%. Besides, the IC50 in assay [2] (Homo sapiens) is > 30 µM.

With `Cc1nccc(-c2nc3nn(-c4c(C)cc(C5CC5)cc4C)cc3c(=O)[nH]2)n1` [Example 287, 2-(4-cyclopropyl-2,6-dimethylphenyl)-6-(2-methylpyrimidin-4-yl)-2,5-dihydro-4H-pyrazolo[3,4-d]pyrimidin-4-one], in assay [1], the inhibition at 6 µM came to 99%. Moreover, in assay [2] (Homo sapiens), the concentration for half-maximal inhibition (IC50) was > 30 µM.

For the molecule `Cc1cc(C2CC2)cc(C)c1-n1cc2c(=O)[nH]c(OCCOC(F)F)nc2n1` [Example 288, 2-(4-cyclopropyl-2,6-dimethylphenyl)-6-[2-(difluoromethoxy)ethoxy]-2,5-dihydro-4H-pyrazolo[3,4-d]pyrimidin-4-one], the inhibition at 6 µM in assay [1] came to 99%. In assay [2] (Homo sapiens), the IC50 was > 30 µM.

As to `Cc1cc(C2CC2)cc(C)c1-n1cc2c(=O)[nH]c([C@@]3(F)CCOC3)nc2n1` [Example 289, 2-(4-cyclopropyl-2,6-dimethylphenyl)-6-[(3R)-3-fluorooxolan-3-yl]-2,5-dihydro-4H-pyrazolo[3,4-d]pyrimidin-4-one or 2-(4-cyclopropyl-2,6-dimethylphenyl)-6-[(3S)-3-fluorooxolan-3-yl]-2,5-dihydro-4H-pyrazolo[3,4-d]pyrimidin-4-one], the “IL-1β inhibitory rate at 6 μM (%)” value in assay [1] (6 μM) amounted to 101%. The IC50 in assay [2] is > 30 µM.

In the case of `CCc1cc(C2CC2)cc(C)c1-n1cc2c(=O)[nH]c(COC(F)F)nc2n1` [Example 291, 2-(4-cyclopropyl-2-ethyl-6-methylphenyl)-6-[(difluoromethoxy)methyl]-2,5-dihydro-4H-pyrazolo[3,4-d]pyrimidin-4-one], the inhibition at 6 µM in assay [1] came to 98%. Also, the IC50 in assay [2] (Homo sapiens) is > 30 µM.

A word on the IC50: it is the concentration needed to halve the response being measured. Higher therefore signals weaker potency in that assay.
